Results on three molecules are retold here after patent US12492178B2, “Stable polymorph of R-MDMA HCl” (EMPATHBIO, INC., priority 2021, dated 2025).

For data set [1] the following is noted: background statement; cited from earlier work.
A short description of data set [2]: Dry milling, effect on crystallinity (XRPD). The data set is classed as physicochemical. The settings on record: 30 Hz for 3×10 minutes. The procedure: A dry milling experiment was conducted to investigate the effect on crystallinity.
Data set [3] in a line: pH of aqueous solution using pH test strips. The data set is classed as physicochemical. The conditions noted are these: 10 mg/mL aqueous solution.
Data set [4] can be described thus: Relative humidity stressing (state by XRPD). The conditions noted are these: for Observations after RH stressing / State after RH stressing: 6 d.
Data set [5] in a line: Stable form and polymorph screen, twenty-nine experiments (XRPD). The settings on record: all samples of Example 3, XRPD. In kind it is physicochemical.
The nature of data set [6]: Stable form screen from slurries in aqueous/organic mixtures at room temperature for 7 days (state by XRPD). The data set is classed as physicochemical. The settings on record: RT.
A short description of data set [7]: Heating by DSC from RT to 200° C. and cooling to RT, XRPD of treated sample. In kind it is physicochemical. The settings on record: cooled down to RT. The procedure:
An (R)-MDMA HCl Form 1 sample was heated by DSC from RT to 200° C. and cooled down to RT.
Background: In DSC, transitions show as peaks or steps in heat flow.

Data set [8] in a line: Particle size distribution (PSD). The data set is classed as physicochemical.
Data set [9] can be described thus: Dynamic Vapor Sorption (DVS). In kind it is physicochemical. The settings on record: for Post-DVS crystalline form: XRPD of post-DVS solids. The procedure:
Dynamic vapor sorption data were collected on a Surface Measurement System DVS Intrinsic instrument.
Samples were not dried prior to analysis. Sorption and desorption data were collected over a range from 5% to 95% RH at 10% RH increments under a nitrogen purge. The equilibrium criterion used for analysis was less than 0.0100% weight change in 5 minutes with a maximum equilibration time of 3 hours. Data were not corrected for the initial moisture content of the samples.

A short description of data set [10]: Approximate solubility in various solvents at ambient temperature (aliquot addition, visual observation). The data set is classed as physicochemical. The conditions noted are these: for solubility: ambient temperature. The procedure: Aliquots of various solvents were added to measured amounts of a Form I with agitation (typically sonication) at ambient temperature until complete dissolution was achieved, as judged by visual observation. If dissolution occurred after the addition of the first aliquot, values are reported as “>”.

Data set [11] is described as follows: Stable form screen from slurries in organic solvent (state by XRPD). The data set is classed as physicochemical.

Where two headings read alike, the source gives them in different places.

As for `CNC(C)Cc1ccc2c(c1)OCO2.Cl` (racemic) [hydrochloride salt of racemic MDMA], the “Solubility in water (in words)” value in data set [1] is “soluble in water”.
With `CN[C@H](C)Cc1ccc2c(c1)OCO2.Cl` [R-MDMA HCl Form I, (R)-3,4-methylenedioxymethamphetamine HCl], the “State after dry milling” value in [2] is “Form I with no apparent decrease in crystallinity”. Further, the “pH of aqueous solution” value in [3] is “pH of a 10 mg/mL aqueous solution is approximately 6 using pH test”. Besides, the “Observations after RH stressing” value in [4] (75% RH) was “free-flowing solids, B/E”; in [4] (90% RH), “mostly free-flowing solids, some clumps,”; in data set [4] (97% RH) it was “off-white fines, B/E, some deliquesence”. The “State after RH stressing” value is listed as “Form I” in data set [4] (75% RH); “Form I” in data set [4] (90% RH); “Form I, PO” in data set [4] (97% RH). For the same molecule, in [4] (97% RH for 6 days), the “Physical stability upon stressing” value was “exhibits physical stability”. The “Form found in stable form and polymorph screen” value in data set [5] is reported as “Form I was formed in each case”. Also, the State after slurry entry in data set [6] (THF/water 98:2 (aw 0.38)) is on record as “Form I”; in data set [6] (acetone/water 98:2 (aw 0.35)), “Form I”; in data set [6] (p-dioxane/water 95:5 (aw 0.40)), “Form I”; in data set [11] (1-BuOH, RT, 14 d), “Form I”; in data set [11] (90:10 EtOAc/MeOH, RT, 14 d) it was “Form I”; in [11] (ACN, RT, 14 d), “Form I”. For the same molecule, the State after slurry entry is “Form I” in data set [11] (DCM, RT, 14 d); “Form I” in [11] (EtOH, RT, 14 d); “Form I” in data set [11] (IPA, RT, 14 d); “Form I” in data set [11] (IPA, ~5° C., 14 d); “Form I” in data set [11] (MeOH/MTBE (10:90), RT, 5 d); “Form I” in data set [11] (t-BuOH, ~75° C., 7 d). In addition, the “Crystalline state after heating” value in data set [7] is on record as “Form I crystalline state”. In addition, in data set [8], the “PSD d10” value is 5.10 μm. For the same molecule, the “PSD d50” value in data set [8] came to 19.2 μm. The “PSD d90” value in data set [8] is 48.8 μm. Moreover, the “Water sorbed, equivalent moles” value in data set [9] (5-85% RH) was determined as 0.04 moles water; in data set [9] (85-95% RH, per mole of salt), 0.7 mol water. The DVS wt. gain in data set [9] (5-85% RH, sorption, HCl) was 0.28% wt. gain 5-85% RH; in data set [9] (5-85% RH, sorption, listed as (R)-MDMA HCl Form I, HCl) it was 0.28%; in [9] (85-95% RH, sorption) it was 5.00%. The molecule also returned a DVS weight gain in data set [9] (5-95% RH, sorption, listed as (R)-3,4-methylenedioxymethamphetamine HCl Form I, HCl) of 5.28±0.02%. Also, the DVS wt. loss in data set [9] (85-5% RH, desorption) is 0.51% wt. loss 85-5% RH; in data set [9] (95-85% RH, desorption), 4.84% wt. loss 95-85% RH. In data set [9] (95-5% RH, desorption, listed as (R)-3,4-methylenedioxymethamphetamine HCl Form I, HCl), this molecule returned a DVS weight loss of 5.35±0.02%. Further, the Post-DVS crystalline form entry is recorded as “Post-DVS crystalline form was found to be Form I” in [9] (HCl) and “consistent with Form I” in [9] (listed as (R)-MDMA HCl Form I, HCl). In addition, the “Hygroscopicity (in words)” value in [9] (between 5% and 85% RH) is listed as “low hygroscopicity”; in data set [9] (between 85% and 95% RH), “Significant hygroscopicity”. Besides, the Hysteresis on desorption entry in data set [9] (desorption 95-5% RH) is “virtually no hysteresis”. In addition, the “Approximate solubility at RT (in words)” value is “good solubility in ACN, DCM, and most alcohols” in [10] (ACN, DCM, and most alcohols, listed as R-MDMA HCl Form 1, HCl); “The compound exhibited high solubility in aqueous environments,” in data set [10] (aqueous environments, HCl); “high solubility in aqueous environments” in data set [10] (aqueous environments, listed as R-MDMA HCl Form 1, HCl); “Lower solubility was observed in most organic solvents tested” in data set [10] (most organic solvents tested, HCl); “Lower solubility was observed in most organic solvents tested” in [10] (most organic solvents tested, listed as R-MDMA HCl Form 1, HCl). In addition, the solubility is greater than 110000 µg/mL in [10] (Water, listed as R-MDMA HCl Form 1, HCl); 3000 µg/mL in data set [10] (organic solvent or mixture, thermodynamic from solid, 1-BuOH, read-out: Solubility); greater than 76000 µg/mL in data set [10] (organic solvent or mixture, thermodynamic from solid, 90:10 Acetone/Water, read-out: Solubility); less than 1000 µg/mL in data set [10] (organic solvent or mixture, thermodynamic from solid, Acetone, read-out: Solubility); 7000 µg/mL in data set [10] (organic solvent or mixture, thermodynamic from solid, CAN, read-out: Solubility); 16000 µg/mL in data set [10] (organic solvent or mixture, thermodynamic from solid, DCM, read-out: Solubility). The solubility in data set [10] (organic solvent or mixture, thermodynamic from solid, EtOAc, read-out: Solubility) is less than 1000 µg/mL; in data set [10] (organic solvent or mixture, thermodynamic from solid, EtOH, read-out: Solubility), 25000 µg/mL; in data set [10] (organic solvent or mixture, thermodynamic from solid, Heptane, read-out: Solubility), less than 1000 µg/mL; in data set [10] (organic solvent or mixture, thermodynamic from solid, IPA, read-out: Solubility), 6000 µg/mL; in data set [10] (organic solvent or mixture, thermodynamic from solid, MTBE, read-out: Solubility), less than 1000 µg/mL; in data set [10] (organic solvent or mixture, thermodynamic from solid, MeOH, read-out: Solubility) it was greater than 114000 µg/mL. For the same molecule, the solubility in [10] (organic solvent or mixture, thermodynamic from solid, MeOH/MTBE (5:95), read-out: Solubility) is less than 1000 µg/mL; in [10] (organic solvent or mixture, thermodynamic from solid, MeOH/MTBE (10:90), read-out: Solubility), less than 2000 µg/mL; in [10] (organic solvent or mixture, thermodynamic from solid, MeOH/MTBE (20:80), read-out: Solubility) it was 3000 µg/mL; in data set [10] (organic solvent or mixture, thermodynamic from solid, THF, read-out: Solubility), less than 1000 µg/mL; in data set [10] (organic solvent or mixture, thermodynamic from solid, p-dioxane, read-out: Solubility), less than 1000 µg/mL; in data set [10] (organic solvent or mixture, thermodynamic from solid, t-BuOH, read-out: Solubility), 1000 µg/mL. The solubility in data set [10] (thermodynamic from solid, Water, read-out: Solubility) is greater than 110000 µg/mL.
Turning to `CNC(C)Cc1ccc2c(c1)OCO2` (stereo not drawn) [MDMA, 3,4-Methylenedioxymethamphetamine], the “Solubility in water (in words)” value in data set [1] is recorded as “insoluble in water”.

As usually defined, the solubility is the concentration that dissolves in the medium under given conditions.
